Laboratory results from patent publication US20170216452A1, “ANTIBODIES AND ANTIBODY FRAGMENTS FOR SITE-SPECIFIC CONJUGATION” (Pfizer Inc., priority 2015, published 2017).
Entries after “also recorded” stand apart in the source; their conditions may differ. Like-named read-outs stand apart in the source and are kept apart here. Square brackets hold non-standard residues; d marks the D form. Peptide text beside a SMILES is read from it. * marks the point of attachment. Dolaproine = CO[C@@H]([C@@H]1CCCN1)[C@@H](C)C(=O)O; Dil = CC[C@H](C)[C@H](NC)[C@@H](CC(=O)O)OC; Doe = c1ccc(C[C@H](N*)c2nccs2)cc1; Aib = CC(C)(N)C(=O)O

How the values were obtained:
[1] = tested on: N87-TM cells (N87-TM-1, N87-TM-2); test: Cytotoxicity studies (MTS) on T-DM1 resistant N87-TM cells made in vitro; format: cell-based
Experimental: N87 cells were passaged into two separate flasks and each flask was treated identically with respect to the resistance-generation protocol to enable biological duplicates. […] The procedure was intended to simulate the chronic, multi-cycle (on/off) dosing at maximally tolerated doses typically used for cytotoxic therapeutics in the clinic, followed by a recovery period. […] Drug selection pressure was removed after ˜3-4 months of cycle treatments when the level of resistance no longer increased after continued drug exposure. […] Data were collected from various thawed cryopreserved populations derived from a single selection, over approximately 1-2 years after model development to ensure consistency in the results.
Cells were seeded in 96-well plates at low density, then treated the following day with ADCs and unconjugated payloads at 3-fold serial dilutions at 10 concentrations in duplicate. Cells were incubated for 4 days in a humidified 37° C./5% CO2 incubator. The plates were harvested by incubating with CellTiter® 96 AQueous One MTS Solution (Promega, Madison, Wis.) for 1.5 hours and absorbance measured on a Victor plate reader (Perkin-Elmer, Waltham, Mass.) at wavelength 490 nm. IC50 values were calculated using a four-parameter logistic model with XLfit (IDBS, Bridgewater, N.J.).

N87 parental cells = test: Cytotoxicity studies (CellTiter Glo, 96 h) on parental N87 cells (Example 15); format: cell-based; conditions: read-out: sensitivity to free payload (IC50), N87
Experimental: (§1) Cells were incubated for 96 hours in a humidified 37° C./5% CO2 incubator.

[2] = tested on: N87-T-DM1 cells (Mouse #7, #17, #2); test: Cytotoxicity studies (CellTiter Glo, 96 h) on cells relapsed from T-DM1 treatment in vivo; format: cell-based; conditions: for IC50: Mus musculus; for sensitivity of T-DM1 resistant cells generated in vivo: N87-T-DM1 cells compared to parental
Experimental: as §1

[3] = tested on: HT29 colon carcinoma cells (EDB+FN negative); test: In vitro cytotoxicity of anti-EDB ADCs (Cell Titer Glo, 4 days); format: cell-based, human; conditions: four days, ng/ml of antibody
Experimental: Proliferating WI38-VA13 or HT29 cells were harvested from culture flasks with non-enzymatic cell dissociation buffer and cultured overnight in 96-well plates (Corning) at 1000 cells/well in a humidified chamber (37° C., 5% CO2). […] In some experiments, cells were plated at 1500 cells/well and treated the same day. […] On harvest day, 50 μl of Cell Titer Glo (Promega) was added to the cells and incubated 0.5 hours at room temperature. […] Relative cell viability was determined as a percentage of untreated control wells. IC50 values were calculated using four-parameter logistic model #203 with XLfit v4.2 (IDBS).

PDX-PAX-12534 = PDX-PAX-12534 pancreatic PDX model; format: in vivo, mouse; conditions: 0.3, 1 and 3 mg/kg
Source text: (§2) To generate PDX models, tumors were collected from donor animals and tumor fragments approximately 3×3 mm were implanted subcutaneously into the flank of female athymic nude mice (for PDX-NSX-11122 model) or NOD SCID mice (for PDX-PAX-13565 and PDX-PAX-12534 models) by using a 10 gage trocar. When average tumor volume reached approximately 160 to 260 mm^3 the mice were randomized into treatment groups, with 7-10 mice in each group. ADCs or vehicle (PBS) dosing regime and administration route as well as tumor measurement procedures are the same as described above for CLX models.

PDX-NSX-11122 = PDX-NSX-11122 NSCLC PDX model; format: in vivo, mouse
Source text: as §2

PDX-PAX-13565 = PDX-PAX-13565 pancreatic PDX model; format: in vivo, mouse; conditions: 0.3, 1 and 3 mg/kg
Source text: as §2

Ramos = Ramos lymphoma CLX model; format: in vivo, mouse; conditions: 3 mg/kg
Source text: (§3) To generate CLX models, 8×10^6 to 10×10^6 cells of H-1975, HT29, or Ramos tumor lines were implanted into female athymic nude mice subcutaneously. Ramos and H-1975 cells for inoculation were suspended in 50% and 100% Matrigel (BD Biosciences), respectively. For the Ramos model, the animals received whole body irradiation (4 Gy) before cell inoculation to facilitate the establishment of tumors. When the average tumor volume reached approximately 160 to 320 mm^3, the animals were randomized into treatment groups, with 8-10 mice in each group. ADCs or vehicle (PBS) were administered intravenously on day 0 and then the animals were dosed once every 4 days for 4 to 8 doses. Tumors were measured once or twice weekly and tumor volume was calculated as volume (mm^3)=(width×width×length)/2.

HT29 = HT29 colon CLX model; format: in vivo, mouse; conditions: 3 mg/kg
Source text: as §3

H-1975 = H-1975 NSCLC CLX model; format: in vivo, mouse
Source text: as §3

[4] = tested on: 37622 patient-derived xenografts; conditions: 10 mg/kg, Q4d×4
Experimental: (§4) For each model described below the first dose was given on Day 1. The tumors were measured at least once a week and their volume was calculated with the formula: tumor volume (mm^3)=0.5×(tumor width^2)(tumor length). The mean tumor volumes (±S. E. M.) for each treatment group were calculated having a maximum of 8-10 animals and a minimum of 6-8 animals to be included.
The 37622 patient-derived xenografts were subcutaneously passaged in vivo as fragments from animal to animal in nude (Nu/Nu) female mice. When the tumors reached a volume of 150 to 300 mm^3, they were staged to ensure uniformity of the tumor size among various treatment groups.

N87 gastric xenografts = test: N87 gastric xenograft model; format: in vivo, mouse; conditions: IV Q4d×4
Experimental: as §4
When the tumors reached a volume of 250 to 450 mm^3, the tumors were staged to ensure uniformity of the tumor mass among various treatment groups.

N87 xenografts = test: T-DM1 resistance generated in vivo in N87 xenografts and follow-on treatment; parameters: species or system mouse; conditions: […] weekly
Experimental: Tumors were measured twice per week or weekly and mass calculated as volume=(width×width×length)/2.

[5] = tested on: 144580 breast patient-derived xenografts; conditions: all doses tested (1, 5, 3 and 6 mg/kg), Q4d×4
Experimental: as §4
The 144580 breast patient-derived xenografts were subcutaneously passaged in vivo as fragments from animal to animal in nude (Nu/Nu) female mice. When the tumors reached a volume of 150 to 300 mm^3, they were staged to ensure uniformity of the tumor size among various treatment groups.

N87 tumors = test: In vivo efficacy in N87 tumors in NSG mice; parameters: species or system mouse; conditions: N87 model; 6 and 10 mg/kg Q4D×4
Experimental: (§5) In order to determine if the resistance observed in cell culture was recapitulated in vivo, parental N87 cells and N87-TM-2 cells were expanded and injected into the flanks of Female NOD scid gamma (NSG) immunodeficient mice (NOD. Cg-Prkdcscid II2rgtm1Wjl/SzJ) obtained from The Jackson Laboratory (Bar Harbor, Me.). Mice were injected subcutaneously in the right flank with suspensions of either N87 or N87-TM cells (7.5×10^6 cells per injection, with 50% Matrigel). Mice were randomized into study groups when tumors reached ˜0.3 g (˜250 mm^3). […] Tumors were measured weekly and mass calculated as volume=(width×width×length)/2. Time-to-event analysis (tumor doubling) was conducted and significance evaluated by Log-rank (Mantel-Cox) test.

N87-TM tumors = test: In vivo efficacy in T-DM1 resistant N87-TM tumors in NSG mice; parameters: species or system mouse; conditions: N87-TM-2 model; 6 and 10 mg/kg
Experimental: as §5

[6] = tested on: N87 cell line xenograft tumors; test: Bystander effect, immunohistocytochemistry (pHH3, human IgG) of N87 xenograft tumors; format: in vivo, mouse; conditions: single dose T-DM1 6 mg/kg or T-vc0101 3 mg/kg, tumors harvested 96 hours later
Source text: Tumor sections were stained for human IgG to detect ADC bound to tumor cells and phosphhistone H3 (pHH3) to detect mitotic cells as readout of the proposed mechanism of action for the payloads of both ADCs.

JIMT-1 breast xenografts = conditions: even at 6 mg/kg, IV Q4d×4
Experimental: as §4
To generate xenografts, nude (Nu/Nu) female mice were implanted subcutaneously with 5×10^6 JIMT-1 cells (DSMZ# ACC-589) in 50% Matrigel (BD Biosciences). When the tumors reached a volume of 200 to 250 mm^3, the tumors were staged to ensure uniformity of the tumor mass among various treatment groups.

[7] = read-out: sensitivity to free payload (IC50), N87-T-DM1_Ms2
[8] = read-out: sensitivity to free payload (IC50), N87-T-DM1_Ms7
[9] = read-out: sensitivity to free payload (IC50), N87-T-DM1_Ms17

COc1cc2cc(c1Cl)N(C)C(=O)C[C@H](OC(=O)[C@H](C)N(C)C(=O)CCS)[C@]1(C)O[C@H]1[C@H](C)[C@@H]1C[C@@](O)(NC(=O)O1)[C@H](OC)/C=C/C=C(\C)C2 [DM1]
sensitivity of N87-TM cells [1]: retained sensitivity

COc1cccc2c1C(=O)c1c(O)c3c(c(O)c1C2=O)C[C@@](O)(C(=O)CO)C[C@@H]3O[C@H]1C[C@H](N)[C@H](O)[C@H](C)O1 [Doxorubicin]
sensitivity of N87-TM cells [1]: lack of cross-resistance
IC50 (N87 parental cells): 48 nM
IC50 [2, 7]: 46 nM
IC50 [2, 8]: 79 nM
IC50 [2, 9]: 34 nM
sensitivity of T-DM1 resistant cells generated in vivo [2]: No resistance

CC[C@H](C)[C@@H]([C@@H](CC(=O)N1CCC[C@H]1[C@H](OC)[C@@H](C)C(=O)N[C@@H](Cc1ccccc1)c1nccs1)OC)N(C)C(=O)[C@@H](NC(=O)C(C)(C)N)C(C)C [compound 0101, 2-methylalanyl-N-[(3R,4S,5S)-3-methoxy-1-{(2S)-2-[(1R,2R)-1-methoxy-2-methyl-3-oxo-3-{[(1 S)-2-phenyl-1-(1,3-thiazol-2-yl)ethyl]amino}propyl]pyrrolidin-1-yl}-5-methyl-1-oxoheptan-4-yl]-N-methyl-L-valinamide] (H-[Aib]V[Dil][Dolaproine]-Doe)
sensitivity of N87-TM cells [1]: retained sensitivity
IC50 (N87 parental cells): 0.5 nM
IC50 [2, 7]: 0.4 nM
IC50 [2, 8]: 0.6 nM
IC50 [2, 9]: 0.28 nM
sensitivity of T-DM1 resistant cells generated in vivo [2]: surprisingly sensitive; also recorded: not resistant

CC(=O)O[C@H]1C(=O)[C@@]2(C)[C@H]([C@H](OC(=O)c3ccccc3)[C@]3(O)C[C@H](OC(=O)[C@H](O)[C@@H](NC(=O)c4ccccc4)c4ccccc4)C(C)=C1C3(C)C)[C@]1(OC(C)=O)CO[C@@H]1C[C@@H]2O [paclitaxel]
sensitivity of N87-TM cells [1]: lack of cross-resistance

EDB-L19-diS-DM1
Avg IC50 [3]: 237 ng/mL

EDB-L19-vc-0101: anti-EDB antibody L19 conventionally conjugated to vc-0101
Avg IC50 [3]: 15,346 ng/ml
tumor response (PDX-PAX-12534): tumor regression in a dose dependent manner
tumor response (PDX-NSX-11122; 1 mg/kg): delayed tumor growth
tumor response (PDX-NSX-11122; 3 mg/kg): complete regressions
tumor response (PDX-NSX-11122; 3 mg/kg and […]): tumor regression
efficacy compared to isotype negative control ADCs and disulfide linker ADCs (PDX-NSX-11122; 1 and 3 mg/kg vs 10 mg/kg EDB-L19-diS-DM1, 5 mg/kg EDB-L19-diS-C2OCO-1569): greater efficacy
tumor response (PDX-PAX-13565): tumor regression in a dose dependent manner
tumor response (Ramos): tumor regression
tumor response (HT29): tumor regression
tumor response (H-1975; 3 mg/kg): tumor regressions
tumor response (H-1975; 3 mg/kg, and as low as […]): tumor regression
tumor response (H-1975; 0.3, 1 and 3 mg/kg): tumor regression in a dose dependent manner
tumor response (H-1975; highest doses evaluated (3 mg/kg ADC1; 1 mg/kg ADC9)): tumor regression

T-DM1
tumor response [4]: only provided some therapeutic benefit
tumor response (N87 gastric xenografts; 10 mg/kg): complete regression of tumors
tumor response (N87 gastric xenografts; 1 and 3 mg/kg): delayed tumor growth
mice responding to initial T-DM1 treatment (N87 xenografts): 17 out of 20
tumor response [5]: ineffective
mice in which tumor doubling was prevented for at least 60 days (N87 tumors): > 50%
prevention of tumor doubling (N87-TM tumors): failed to do so
bystander effect [6]: is not
tumor response (JIMT-1 breast xenografts): inactive
